{"source": "patent US20230121086A1", "about": "“RORgT INHIBITOR, PREPARATION METHOD THEREOF AND USE THEREOF” (SUNSHINE LAKE PHARMA CO., LTD., priority 2020, published 2023)"}
{"molecular_target": "T1, RORγt (Homo sapiens, UniProt P51449)", "T1 construct": "[…]", "T1 sequence (P51449 269-508 limits assumed)": "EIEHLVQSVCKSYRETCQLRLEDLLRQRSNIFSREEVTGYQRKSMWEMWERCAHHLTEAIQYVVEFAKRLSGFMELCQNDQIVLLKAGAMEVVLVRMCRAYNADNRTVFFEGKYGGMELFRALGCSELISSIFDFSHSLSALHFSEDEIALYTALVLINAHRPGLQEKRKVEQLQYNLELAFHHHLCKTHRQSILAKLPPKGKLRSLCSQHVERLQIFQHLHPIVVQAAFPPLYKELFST", "test": "Fluorescence resonance energy transfer (FRET) test, inhibitory activity of RORγt", "assay_type": "biochemical", "details": "FRET, B-RORγt LBD / Biotin-SRC1; read-out: IC50", "units": {"IC50": "µM"}}
{"smiles": "CCS(=O)(=O)c1ccc([C@H](CC(=O)N(C)C)NC(=O)c2ccc(N3C[C@@H](Oc4ccc(C(F)(F)F)cc4)C[C@H]3COC(F)F)cc2)cc1", "note": "[Example 95]", "IC50": 0.077}
{"smiles": "CCS(=O)(=O)c1ccc([C@H](CC(=O)OC)NC(=O)c2ccc(N3C[C@@H](Oc4ccc(C(F)(F)F)cc4)C[C@H]3COC(F)(F)F)cc2)cc1", "note": "[Example 96, methyl (S)-3-(4-(ethylsulfonyl)phenyl)-3-(4-((2S,4S)-2-((trifluoromethoxy)methyl)-4-(4-(trifluoromethyl)phenoxy)pyrrolidin-1-yl)benzamido)propionate]", "IC50": 0.031}
{"smiles": "CCS(=O)(=O)c1ccc([C@H](CC(=O)OC)NC(=O)c2ccc(N3C[C@@H](Oc4ccc(C(F)(F)F)cc4)C[C@H]3COC(F)F)cc2)cc1", "note": "[Example 97, methyl (S)-3-(4-((2S,4S)-2-((difluoromethoxy)methyl)-4-(4-(trifluoromethyl)phenoxy)pyrrolidin-1-yl)benzoylamino)-3-(4-(ethylsulfonyl)phenyl)propionate]", "IC50": 0.021}
{"smiles": "CCS(=O)(=O)c1ccc([C@H](CC(N)=O)NC(=O)c2ccc(N3C[C@@H](Oc4ccc(C(F)(F)F)cc4)C[C@H]3COC(F)F)cc2)cc1", "note": "[Example 98, N—((S)-3-amino-1-(4-(ethylsulfonyl)phenyl)-3-oxopropyl)-4-((2S,4S)-2-((difluoromethoxy)methyl)-4-(4-(trifluoromethyl)phenoxy)pyrrolidin-1-yl)benzamide]", "IC50": 0.021}
{"smiles": "CCS(=O)(=O)c1ccc([C@H](CC(=O)NCC(=O)OC)NC(=O)c2ccc(N3C[C@@H](Oc4ccc(C(F)(F)F)cc4)C[C@H]3COC(F)F)cc2)cc1", "note": "[Example 99, methyl 2-((S)-3-(4-((2S,4S)-2-((difluoromethoxy)methyl)-4-(4-(trifluoromethyl)phenoxy)pyrrolidin-1-yl)benzoylamino)-3-(4-(ethylsulfonyl)phenyl)propionamido)acetate]", "IC50": 0.025}
{"smiles": "CCS(=O)(=O)c1ccc([C@H](CC(=O)NCC(=O)O)NC(=O)c2ccc(N3C[C@@H](Oc4ccc(C(F)(F)F)cc4)C[C@H]3COC(F)F)cc2)cc1", "note": "[Example 100, 2-((S)-3-(4-((2S,4S)-2-((difluoromethoxy)methyl)-4-(4-(trifluoromethyl)phenoxy)pyrrolidin-1-)benzoylamino)-3-(4-(ethylsulfonyl)phenyl)propionamido)acetic Acid]", "IC50": 0.014}
{"smiles": "CCS(=O)(=O)c1ccc([C@@H](NC(=O)c2ccc(N3C[C@@H](Oc4ccc(C(F)(F)F)cc4)C[C@H]3COC(F)F)cc2)C(=O)O)cc1", "note": "[Example 102, (R)-2-(4-((2S,4S)-2-((difluoromethoxy)methyl)-4-(4-(trifluoromethyl)phenoxy)pyrrolidin-1-yl)benzoylamino)-2-(4-(ethylsulfonyl)phenyl)acetic Acid]", "IC50": 0.004}
{"smiles": "CCS(=O)(=O)c1ccc([C@H](CN(C)C)NC(=O)c2ccc(N3C[C@@H](Oc4ccc(C(F)(F)F)cc4)C[C@H]3COC(F)F)cc2)cc1", "note": "[Example 103]", "IC50": 0.06}
{"smiles": "CCS(=O)(=O)c1ccc([C@H](COCCOC)NC(=O)c2ccc(N3C[C@@H](Oc4ccc(C(F)(F)F)cc4)C[C@H]3COC(F)F)cc2)cc1", "note": "[Example 104]", "IC50": 0.012}
{"smiles": "CCS(=O)(=O)c1ccc([C@H](CCC(=O)O)NC(=O)c2ccc(N3C[C@@H](Oc4ccc(C(F)(F)F)cc4)C[C@H]3COC(F)F)cc2)cc1", "note": "[Example 105, (S)-4-(4-((2S,4S)-2-((difluoromethoxy)methyl)-4-(4-(trifluoromethyl)phenoxy)pyrrolidin-1-yl)benzoylamino)-4-(4-(ethylsulfonyl)phenyl)butyric Acid]", "IC50": 0.007}
{"smiles": "CCS(=O)(=O)c1ccc([C@H](CCCC(=O)O)NC(=O)c2ccc(N3C[C@@H](Oc4ccc(C(F)(F)F)cc4)C[C@H]3COC(F)F)cc2)cc1", "note": "[Example 106, (S)-5-(4-((2S,4S)-2-((difluoromethoxy)methyl)-4-(4-(trifluoromethyl)phenoxy)pyrrolidin-1-yl)benzoylamino)-5-(4-(ethylsulfonyl)phenyl)valeric Acid]", "IC50": 0.052}
{"smiles": "CCOC[C@H]1CC[C@@H](c2ccc(C(F)(F)F)cc2)CN1c1ccc(C(=O)N[C@H](CC#N)c2ccc(S(=O)(=O)CC)cc2)cc1", "note": "[Example 108-2, N—((R)-2-cyano-1-(4-(ethylsulfonyl)phenyl)ethyl)-4-((2R,5S)-2-(ethoxymethyl)-5-(4-(trifluoromethyl)phenyl)piperidin-1-yl)benzamide]", "IC50": 0.024}
{"smiles": "CCS(=O)(=O)c1ccc([C@@H](CC#N)NC(=O)c2ccc(N3C[C@@H](c4ccc(C(F)(F)F)cc4)CC[C@H]3COCC3CC3)cc2)cc1", "note": "[Example 109-1, N—((R)-2-cyano-1-(4-(ethylsulfonyl)phenyl)ethyl)-4-((2S,5R)-2-((cyclopropylmethoxy)methyl)-5-(4-(trifluoromethyl)phenyl)piperidin-1-yl)benzamide]", "IC50": 0.007}
{"smiles": "CCC(F)(F)OC[C@@H]1CC[C@H](c2ccc(C(F)(F)F)cc2)CN1c1ccc(C(=O)N[C@H](CC#N)c2ccc(S(=O)(=O)CC)cc2)cc1", "note": "[Example 110-1, N—((R)-2-cyano-1-(4-(ethylsulfonyl)phenyl)ethyl)-4-((2S,5R)-2-((1,1-difluoropropoxy)methyl)-5-(4-(trifluoromethyl)phenyl)piperidin-1-yl)benzamide]", "IC50": 0.019}
{"smiles": "CCC(F)(F)OC[C@H]1CC[C@@H](c2ccc(C(F)(F)F)cc2)CN1c1ccc(C(=O)N[C@H](CC#N)c2ccc(S(=O)(=O)CC)cc2)cc1", "note": "[Example 110-2, N—((R)-2-cyano-1-(4-(ethylsulfonyl)phenyl)ethyl)-4-((2R,5S)-2-((1,1-difluoropropoxy)methyl)-5-(4-(trifluoromethyl)phenyl)piperidin-1-yl)benzamide]", "IC50": 0.007}
{"smiles": "CCS(=O)(=O)c1ccc([C@H](CC#N)NC(=O)c2ccc(N3C[C@H](c4ccc(C(F)(F)F)cc4)CC[C@H]3COC(F)F)cc2F)cc1", "note": "[Example 111-1, N—((S)-2-cyano-1-(4-(ethylsulfonyl)phenyl)ethyl)-4-((2S,5S)-2-((difluoromethoxy)methyl)-5-(4-(trifluoromethyl)phenyl)piperidin-1-yl)-2-fluorobenzamide]", "IC50": 0.016}
{"smiles": "CCS(=O)(=O)c1ccc([C@H](CC#N)NC(=O)c2ccc(N3C[C@@H](c4ccc(C(F)(F)F)cc4)CC[C@H]3COC(F)F)c(F)c2)cc1", "note": "[Example 113-2, N—((S)-2-cyano-1-(4-(ethylsulfonyl)phenyl)ethyl)-4-((2S,5R)-2-((difluoromethoxy)methyl)-5-(4-(trifluoromethyl)phenyl)piperidin-1-yl)-3-fluorobenzamide]", "IC50": 0.013}
{"smiles": "CCS(=O)(=O)c1ccc([C@H](CC#N)NC(=O)c2ccc(N3C[C@@H](c4ccc(F)cc4)CC[C@H]3COC(F)F)cc2)cc1", "note": "[Example 114-2, N—((S)-2-cyano-1-(4-(ethylsulfonyl)phenyl)ethyl)-4-((2S,5R)-2-((difluoromethoxy)methyl)-5-(4-fluorophenyl)piperidin-1-yl)benzamide]", "IC50": 0.023}
{"smiles": "CCS(=O)(=O)c1ccc([C@H](CC#N)NC(=O)c2ccc(N3C[C@H](c4ccccc4)CC[C@H]3COC(F)F)cc2)cc1", "note": "[Example 115-2, N—((S)-2-cyano-1-(4-(ethylsulfonyl)phenyl)ethyl)-4-((2S,5S)-2-((difluoromethoxy)methyl)-5-phenylpiperidin-1-yl)benzamide]", "IC50": 0.026}
{"smiles": "CCS(=O)(=O)c1ccc([C@H](CC#N)NC(=O)c2ccc(N3C[C@H](N4CCC(C(F)(F)F)CC4)CC[C@H]3COC(F)F)cc2)cc1", "note": "[Example 117-2, N—((S)-2-cyano-1-(4-(ethylsulfonyl)phenyl)ethyl)-4-((3′R,6′S)-6′-((difluoromethoxy)methyl)-4-(trifluoromethyl)-(1,3′-bipiperidin)-1′-yl)benzamide]", "IC50": 0.026}
{"smiles": "CCS(=O)(=O)c1ccc([C@H](CC#N)NC(=O)c2ccc(N3C[C@H](O)C[C@H]3COC(F)F)cc2)cc1", "note": "[Example 131, N—((S)-2-cyano-1-(4-(ethylsulfonyl)phenyl)ethyl)-4-((2S,4R) ((difluoromethoxy)methyl)-4-hydroxypyrrolidin-1-yl)benzamide]", "IC50": 0.12}
{"smiles": "CCS(=O)(=O)c1ccc([C@H](CC#N)NC(=O)c2ccc(C(O)(C(F)(F)F)C(F)(F)F)cc2)cc1", "note": "[Example 143, (S)—N-(2-cyano-1-(4-(ethylsulfonyl)phenyl)ethyl)-4-(1,1,1,3,3,3-hexafluoro-2-hydroxypropan-2-yl)benzamide]", "IC50": 0.104}
{"smiles": "CCS(=O)(=O)c1ccc([C@H](CNC(=O)OC)NC(=O)c2ccc(N3C[C@@H](Oc4ccc(C(F)(F)F)cc4)C[C@H]3COC(F)F)cc2)cc1", "note": "[Example 147, methyl ((R)-2-(4-((2S,4S)-2-((difluoromethoxy)methyl)-4-(4-(trifluoromethyl)phenoxy)pyrrolidin-1-yl)benzoylamino)-2-(4-(ethylsulfonyl)phenyl)ethyl)carbamate]", "IC50": 0.0182}
{"smiles": "CCS(=O)(=O)c1ccc([C@H](CNC=O)NC(=O)c2ccc(N3C[C@@H](Oc4ccc(C(F)(F)F)cc4)C[C@H]3COC(F)F)cc2)cc1", "note": "[Example 148]", "IC50": 0.0152}
{"smiles": "CCS(=O)(=O)c1ccc([C@H](COC(N)=O)NC(=O)c2ccc(N3C[C@@H](Oc4ccc(C(F)(F)F)cc4)C[C@H]3COC(F)F)cc2)cc1", "note": "[Example 149, (R)-2-(4-((2S,4S)-2-((difluoromethoxy)methyl)-4-(4-(trifluoromethyl)phenoxy)pyrrolidin-1-yl)benzoylamino)-2-(4-(ethylsulfonyl)phenyl)ethyl carbamate]", "IC50": 0.0077}
{"smiles": "CCS(=O)(=O)c1ccc([C@H](COC(=O)NC)NC(=O)c2ccc(N3C[C@@H](Oc4ccc(C(F)(F)F)cc4)C[C@H]3COC(F)F)cc2)cc1", "note": "[Example 150, (R)-2-(4-((2S,4S)-2-((difluoromethoxy)methyl)-4-(4-(trifluoromethyl)phenoxy)pyrrolidin-1-yl)benzoylamino)-2-(4-(ethylsulfonyl)phenyl)ethyl methylcarbamate]", "IC50": 0.01}
